From US10632181B2, “Composition, containing RGD motif-containing peptide or fragment thereof, for treating burns and glaucoma, alleviating skin wrinkles, and promoting hair growth” (HUONS CO., LTD., priority 2014, dated 2020)
Positions of bridges follow the written chain, without caps; N, C: chain ends. No end group written: not given here.

Columns and labels:
[1] = tested on: 2-degree burns of male SD rats; assay: Burn treatment test: histopathology (H&E) of burn site; assay type: in vivo, SD (Sprague-Dawley) rats; conditions: score 0-4, 14th day after burn
Protocol: (§1) The experiment was carried out with 55 male SD (Sprague-Dawley) rats that were divided into […] groups: 5 rats for normal group (1 group, G1), 9-10 rats for negative control (1 group, G2), 30 rats for experimental group (3 groups, 10 rats in each group, G3, G4, G5), and 9-10 rats for positive control (1 group, G6). In the remaining groups except normal group, burned male SD rats was used for experiment. After SD rats were anesthesized, 2-degree burns, 2 cm in diameter, were induced on the SD rats using an aluminum electric soldering iron.
(§2) Test substance HU022 (SEQ ID NO:1) (G3, G4, G5), normal saline solution (G2) and Fiblast (G6) were applied to the skin of the burned male SD rats repeatedly once a day seven times a week for 7 days. Fiblast was applied to control group (G6) in 10 μg/dose/head, and the experimental group was divided into 3 groups and test substance was applied to each group in 3.3 μg/dose/head (G3), 10 μg/dose/head (G4), and 30 μg/dose/head (G5).
On the 14th day after burn, the burn site on the back was scraped from the dermis and fixed in 10% neutrally buffered formalin solution, and histopathology test was conducted through H&E staining.
(§3) With the measurement results, parametric comparison determined significance via Student's t-test and One-Way ANOVA, and significance testing relative to negative control was conducted. Furthermore, with the histopathology test results of burns, Kruskal-Wallis' H-test was conducted, and when significance between groups was identified, comparison between groups was performed through Mann-Whitney U-test. The computation program for statistics was SPSS 10.1 K. P<0.05 was determined to be statistically significant.

[2] = tested on: 2-degree burns of male SD rats; assay: Burn treatment test: burn wound area; assay type: in vivo, SD (Sprague-Dawley) rats
Protocol: as §1, §2
After burn was induced, imaging was performed before test substance was applied, and imaging was performed on 1st, 4th, 8th, 11th, and 15th days, and after imaging, test substance was applied and the applied site was covered with gauze and wrapped with tegaderm. Furthermore, images taken for measuring the burn wound area were analyzed using Image analyzer program.
as §3

[3] = tested on: hair growth of C57BL/6 mouse; assay: Hair growth test: hair growing area; assay type: in vivo
Protocol: This test was conducted to assess the influence on hair growth of C57BL/6 mouse when 4 types of test substances, HU024 (SEQ ID NO:2), HU025 (SEQ ID NO:3), HU026 (SEQ ID NO:4), and HU027 (SEQ ID NO:5), were applied to the skin for 14 days.
The group design was set to negative control (sterile water for injection G1), test substance HU024 (SEQ ID NO:2) 20 ug/head/day (G2), test substance HU024 (SEQ ID NO:2) 60 ug/head/day (G3), test substance HU025 (SEQ ID NO:3) 20 ug/head/day (G4), test substance HU025 (SEQ ID NO:3) 60 ug/head/day (G5), test substance HU026 (SEQ ID NO:4) 20 ug/head/day (G6), test substance HU026 (SEQ ID NO:4) 60 ug/head/day (G7), test substance HU027 (SEQ ID NO:5) 20 ug/head/day (G8), test substance HU027 (SEQ ID NO:5) 60 ug/head/day (G9) and positive control minoxyl 3% (G10) administered groups. Each group had 10 animals.
After the animal was put under anesthesia using zoletil (1 mL/kg, i.p), the back of the animal was primarily shaved using a depilator, and Veet depilatory was evenly applied on the back. After about 5 minutes, the applied site was cleaned up using gauze moistened with sterile water for injection. Only animal whose shaved back was scarlet in color was used for group separation. The test substance was applied to the same site daily once per day, 7 times per week for 14 days, and the test substance was evenly applied to the shaved site (on the back) by rubbing with a glass rod about 10 times.
The hair growing area (%) relative to the test substance-applied area was measured and determined, and Image analyzer program (Image Pro Plus ver. 6.3, Cybermetics, USA) was used to measure. […] Imaging was performed together with the measurements on the date when the hair area was measured. On the next day after the end of application, the animals were killed by CO2 gas, and hair on the hair growing area was removed by a depilator and hair weight was measured.
The measurement results were analyzed using SPSS (ver. 10.1K), Duncan t-test for weight changes was conducted through one-way analysis of variance, hair weight was compared between groups using Student's t-test, and hair growing area was compared between groups through nonparametric multiple comparison procedures Whitney-Mann methods. P<0.05 was determined to be statistically significant.

Substance: HU022: polypeptide consisting of 452nd-509th amino acids of ADAM 15 (GenBank AAH14566.1), 58 amino acids; commercial product (EYEGENE Inc.)
- Epidermal regeneration ([1]; 3.3 μg/head/day): 0.1 ± 0.0 points
- Eschar ([1]; 3.3 μg/head/day): 4.0 ± 0.0 points
- Fibroplasia (connective tissue growth) ([1]; 3.3 μg/head/day): 3.1 ± 0.3 points
- Infiltration of Inflammatory cells ([1]; 3.3 μg/head/day): 3.0 ± 0.0 points
- Pilosebaceous (skin appendage regeneration) ([1]; 3.3 μg/head/day): 0.1 ± 0.3 points
- Epidermal regeneration ([1]; 10 μg/head/day): 0.6 ± 0.5 points
- Eschar ([1]; 10 μg/head/day): 3.2 ± 0.6 points
- Fibroplasia (connective tissue growth) ([1]; 10 μg/head/day): 3.0 ± 0.5 points
- Infiltration of Inflammatory cells ([1]; 10 μg/head/day): 3.0 ± 0.0 points
- Pilosebaceous (skin appendage regeneration) ([1]; 10 μg/head/day): 0.9 ± 1.1 points
- Epidermal regeneration ([1]; 30 μg/head/day): 0.6 ± 0.7 points
- Eschar ([1]; 30 μg/head/day): 2.7 ± 0.7 points
- Fibroplasia (connective tissue growth) ([1]; 30 μg/head/day): 3.3 ± 0.5 points
- Infiltration of Inflammatory cells ([1]; 30 μg/head/day): 3.0 ± 0.0 points
- Pilosebaceous (skin appendage regeneration) ([1]; 30 μg/head/day): 1.1 ± 1.0 points
- BURN WOUNDED AREA ([2]; 3.3 μg/head/day, Day 1): 4.8 ± 0.8 cm^2
- BURN WOUNDED AREA (%) ([2]; 3.3 μg/head/day, Day 1): 100.0 ± 16.3%
- BURN WOUNDED AREA ([2]; 3.3 μg/head/day, Day 4): 3.8 ± 0.6 cm^2
- BURN WOUNDED AREA (%) ([2]; 3.3 μg/head/day, Day 4): 79.2 ± 13.571%
- BURN WOUNDED AREA ([2]; 3.3 μg/head/day, Day 8): 2.9 ± 0.6 cm^2
- BURN WOUNDED AREA (%) ([2]; 3.3 μg/head/day, Day 8): 60.8 ± 11.9%
- BURN WOUNDED AREA ([2]; 3.3 μg/head/day, Day 11): 2.5 ± 0.7 cm^2
- BURN WOUNDED AREA (%) ([2]; 3.3 μg/head/day, Day 11): 51.6 ± 15.7%
- BURN WOUNDED AREA ([2]; 3.3 μg/head/day, Day 15): 1.9 ± 0.6 cm^2
- BURN WOUNDED AREA (%) ([2]; 3.3 μg/head/day, Day 15): 40.1 ± 12.8%
- BURN WOUNDED AREA ([2]; 10 μg/head/day, Day 1): 4.3 ± 0.9 cm^2
- BURN WOUNDED AREA (%) ([2]; 10 μg/head/day, Day 1): 100.0 ± 23.0%
- BURN WOUNDED AREA ([2]; 10 μg/head/day, Day 4): 3.6 ± 0.8 cm^2
- BURN WOUNDED AREA (%) ([2]; 10 μg/head/day, Day 4): 82.7 ± 18.0%
- BURN WOUNDED AREA ([2]; 10 μg/head/day, Day 8): 2.9 ± 0.5 cm^2
- BURN WOUNDED AREA (%) ([2]; 10 μg/head/day, Day 8): 68.2 ± 12.3%
- BURN WOUNDED AREA ([2]; 10 μg/head/day, Day 11): 2.4 ± 0.3 cm^2
- BURN WOUNDED AREA (%) ([2]; 10 μg/head/day, Day 11): 56.8 ± 7.7%
- BURN WOUNDED AREA ([2]; 10 μg/head/day, Day 15): 2.2 ± 0.4 cm^2
- BURN WOUNDED AREA (%) ([2]; 10 μg/head/day, Day 15): 51.9 ± 8.9%
- BURN WOUNDED AREA ([2]; 30 μg/head/day, Day 1): 5.2 ± 0.4 cm^2
- BURN WOUNDED AREA (%) ([2]; 30 μg/head/day, Day 1): 100.0 ± 7.0%
- BURN WOUNDED AREA ([2]; 30 μg/head/day, Day 4): 3.5 ± 0.5 cm^2
- BURN WOUNDED AREA (%) ([2]; 30 μg/head/day, Day 4): 67.6 ± 9.3 %
- BURN WOUNDED AREA ([2]; 30 μg/head/day, Day 8): 2.9 ± 0.3 cm^2
- BURN WOUNDED AREA (%) ([2]; 30 μg/head/day, Day 8): 55.9 ± 5.1%
- BURN WOUNDED AREA ([2]; 30 μg/head/day, Day 11): 2.3 ± 0.1 cm^2
- BURN WOUNDED AREA (%) ([2]; 30 μg/head/day, Day 11): 43.9 ± 2.6%
- BURN WOUNDED AREA ([2]; 30 μg/head/day, Day 15): 1.8 ± 0.4 cm^2
- BURN WOUNDED AREA (%) ([2]; 30 μg/head/day, Day 15): 35.6 ± 8.4%

Substance: HU024 (RPTRGDCDLPEFCPG; disulfide 7-13; listed as Homo sapiens)
- HAIR AREA (%) ([3]; 20 ug/head/day, Day 1): 0.02 ± 0.01%
- HAIR AREA (%) ([3]; 20 ug/head/day, Day 4): 0.06 ± 0.04%
- HAIR AREA (%) ([3]; 20 ug/head/day, Day 7): 0.44 ± 0.19%
- HAIR AREA (%) ([3]; 20 ug/head/day, Day 10): 7.55 ± 2.56%
- HAIR AREA (%) ([3]; 20 ug/head/day, Day 14): 67.34 ± 9.03%
- HAIR AREA (%) ([3]; 60 ug/head/day, Day 1): 0.04 ± 0.04%
- HAIR AREA (%) ([3]; 60 ug/head/day, Day 4): 0.00 ± 0.00%
- HAIR AREA (%) ([3]; 60 ug/head/day, Day 7): 0.85 ± 0.75%
- HAIR AREA (%) ([3]; 60 ug/head/day, Day 10): 6.56 ± 3.04%
- HAIR AREA (%) ([3]; 60 ug/head/day, Day 14): 55.69 ± 12.45%
